Columns and labels:
[1] = Pharmacokinetic profile in mouse plasma; format: in vivo
Method: The selective inhibition of mTORC1 activation by NR1 in vitro and in cell-based systems prompted us to evaluate the effect of this compound on mTORC1 activity in vivo. […] In particular, the plasma concentration of NR1 was sustained over 5 µM for 2 h after IP administration of a 30 mg kg^−1 dose (Supplementary Fig. 10). We therefore carried out a pharmacodynamic (PD) study to evaluate the efficacy of NR1 at inhibiting mTORC1 signaling in vivo. In this experiment, mice were starved overnight to achieve a low basal level of mTORC1 activation (pre-dose). After a 16 h fast, the animals were treated with either vehicle or 30 mg kg^−1 NR1 and allowed to re-feed for 2 h before sacrifice and tissue collection. mTORC1 activity was measured by quantification of ^S240/244pS6 by Western blot analysis with a specific antibody. We chose kidney and gastrocnemius muscle as target tissues due to the relevance of mTORC1 in renal cell carcinoma[51] and angiomyolipomas in TSC and LAM[12] and for its important role in the regulation of protein synthesis and muscle mass[52]. The results are summarized in Fig. 6 for skeletal muscle and Supplementary Fig. 11 for kidney.
This study was conducted in accordance with the requirements for the humane care and use of animals set forth in the Animal Welfare Act, the IACUC Guide for the Care and Use of Laboratory Animals, applicable Shanghai and state laws, and regulations and policies of Shanghai ChemPartner Ltd. The animals were not randomized, and the study was not blinded. Male C57BL/6 mice (5 per treatment group, 6–7 weeks old) were fasted of food overnight for 16 hours. IP injection of compound dissolved in MC Tween (0.5% methyl cellulose and 0.1% Tween-80 in water) was given, and then the mice were allowed to feed again ad libitum until sacrifice. The animals were euthanized with CO2. Compound levels in the plasma of treated mice were measured by LC-MS/MS and compared to a standard curve of compound diluted into mouse plasma.
Supplementary Figure 10. Pharmacokinetic profile of NR1 in mouse plasma after a single 30
mg/Kg (body weight) intraperitoneal dose. The dotted line corresponds to 5 µM concentration. Error
bars represent standard deviation of the mean values for n=3 mice.

recombinant human mTOR = target: T1, recombinant human mTOR (Homo sapiens, UniProt P42345); test: Rheb-independent mTOR in vitro kinase assay (HotSpot, radiometric); format: biochemical; details: up to a concentration of 30 µM
T1 construct: GST (N); host or cells: insect cells
T1 sequence (P42345 1360-2549): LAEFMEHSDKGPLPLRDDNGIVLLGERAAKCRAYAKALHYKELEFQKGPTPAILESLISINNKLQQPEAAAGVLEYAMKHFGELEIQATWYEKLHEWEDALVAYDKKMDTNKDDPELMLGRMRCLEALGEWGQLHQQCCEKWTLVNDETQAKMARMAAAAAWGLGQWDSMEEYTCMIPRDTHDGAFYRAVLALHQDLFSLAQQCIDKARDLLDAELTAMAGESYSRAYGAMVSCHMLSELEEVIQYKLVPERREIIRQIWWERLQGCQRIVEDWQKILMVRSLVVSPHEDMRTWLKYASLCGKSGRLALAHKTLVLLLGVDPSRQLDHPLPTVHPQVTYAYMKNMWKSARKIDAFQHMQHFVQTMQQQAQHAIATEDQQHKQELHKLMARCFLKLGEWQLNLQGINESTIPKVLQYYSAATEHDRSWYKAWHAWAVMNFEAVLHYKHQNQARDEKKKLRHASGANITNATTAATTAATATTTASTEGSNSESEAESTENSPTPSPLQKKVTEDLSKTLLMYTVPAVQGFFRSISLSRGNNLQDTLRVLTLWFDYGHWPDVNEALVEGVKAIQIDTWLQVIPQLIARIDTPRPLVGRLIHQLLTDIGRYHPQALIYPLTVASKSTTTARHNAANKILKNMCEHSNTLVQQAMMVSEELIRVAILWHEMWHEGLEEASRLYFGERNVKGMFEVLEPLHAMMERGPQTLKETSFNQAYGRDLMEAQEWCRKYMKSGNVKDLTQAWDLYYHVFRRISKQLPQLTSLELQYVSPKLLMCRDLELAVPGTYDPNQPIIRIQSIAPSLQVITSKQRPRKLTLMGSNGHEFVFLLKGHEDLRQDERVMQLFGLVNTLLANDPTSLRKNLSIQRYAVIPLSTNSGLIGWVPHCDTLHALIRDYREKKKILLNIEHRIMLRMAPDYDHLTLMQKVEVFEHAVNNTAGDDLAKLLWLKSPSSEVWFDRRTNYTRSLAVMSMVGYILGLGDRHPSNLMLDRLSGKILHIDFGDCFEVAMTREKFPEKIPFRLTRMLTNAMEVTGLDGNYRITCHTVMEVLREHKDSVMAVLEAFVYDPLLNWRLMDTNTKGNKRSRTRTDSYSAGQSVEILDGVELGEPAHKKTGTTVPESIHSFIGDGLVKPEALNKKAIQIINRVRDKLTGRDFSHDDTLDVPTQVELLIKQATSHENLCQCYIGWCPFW

[2] = tested on: mTORC1 signaling in TRI102 cells; test: mTORC1 signaling Western blot in TRI102 cells; format: cell-based, human; details: replete and serum-starved conditions, 90 min, dose-dependent
Method: MCF-7 cells were serum-starved for 16 h and treated with compound for 90 min before cell lysis and Western blot analysis. For insulin-stimulated cells, 100 nM insulin was added 30 min before cell lysis. For EGF-stimulated cells, 100 ng mL^−1 EGF was added 10 min before cell lysis. c Rap1 activity was detected in lysates loaded in vitro with either GDP or GTPγS and treated with NR1 at the indicated concentrations. This was followed by a subsequent pulldown of GST-RalGDS-RBD. Bound Rap1 was detected by Western blot. d Evaluation of NR1 in a LAM patient-derived cell line (TRI102) under replete and serum-starved conditions. For replete conditions, TRI102 cells were treated for 90 min with compound in DMEM + 10% FBS. For serum-starved conditions, TRI102 cells were serum-starved 16 h and then treated for 90 min with compound prior to cell lysis and Western blot analysis. e HEK293 cells co-transfected with the indicated mTOR constructs and HA-GST-S6K1 were starved of amino acids or treated with NR1. To assess mTORC1 activity, an HA IP was performed and Western blots probed for ^T389pS6K1. f Chronic treatment of PC3 cells with NR1 to evaluate the inhibition of mTORC1 (using ^T389pS6K1) versus mTORC2 (using ^S473pAKT). PC3 cells were treated with compound under replete conditions for 24 h prior to cell lysis and Western blot analysis. […]

[3] = target: T2, Rheb-dependent mTORC1 kinase activity (Homo sapiens, UniProt Q15382); test: Rheb-dependent mTORC1 in vitro kinase assay (Rheb-IVK); format: biochemical
T2 construct: using full-length Rheb and mTORC1 purified from mammalian cells via a Flag-Raptor handle; made in house; host or cells: HA-GST-Rheb: Freestyle 293-F cells transfected with pRK5-HA-GST-Rheb; mTORC1: HEK-293E cells stably expressing FLAG-Raptor
T2 sequence (Q15382 1-181 limits assumed): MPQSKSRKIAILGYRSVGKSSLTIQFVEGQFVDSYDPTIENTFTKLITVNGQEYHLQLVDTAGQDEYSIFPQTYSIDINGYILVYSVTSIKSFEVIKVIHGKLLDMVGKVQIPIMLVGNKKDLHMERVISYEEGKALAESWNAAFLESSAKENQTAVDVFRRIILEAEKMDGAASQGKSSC

[4] = ip, mouse plasma, single 30 mg/Kg intraperitoneal dose

`CN(C)C(=O)c1ccc(Cn2c(C(=O)O)cc3c(Br)cc(Sc4ccc(Cl)c(Cl)c4)cc32)cc1` [NR1, 4-bromo-6-(3,4-dichlorophenylthio)-1-(4-(dimethylcarbamoyl)benzyl)-1H-indole-2-carboxylic acid] showed an AUC(0-inf) [1, 4] of 23500 ng·h/mL, an AUC(0-t) [1, 4] of 23500 ng·h/mL and a Cmax [1, 4] of 7800 ng/mL. The Tmax [1, 4] was 0.25 h, the half-life ([1]; ip, mouse plasma, single 30 mg/Kg intraperitoneal dose, read-out: Terminal t1/2 (converted)) was 2.24 h and the “plasma concentration sustained for 2 h” value ([1]; mouse, IP, 30 mg kg^−1) was “over 5 µM”. The “inhibitory activity in HotSpot” value (recombinant human mTOR) was “no inhibitory activity”, the “mTORC1 signaling in TRI102 cells” value [2] was “inhibits mTORC1 signaling” and the IC50 [3] was 2100 nM.

Source: article PMC5803267, “A small molecule inhibitor of Rheb selectively targets mTORC1 signaling” (Nature Communications, 2018)
